Consider 12 compounds from patent US12344610B2, “APOL1 inhibitors and methods of use” (Maze Therapeutics, Inc., priority 2022, dated 2025).

Some results are limits rather than exact numbers.

Experiment [1] deals with T1, APOL1 G2 (Homo sapiens, UniProt O14791, DEL388-389).
T1 construct: expressed in transfected cells; host or cells: HEK293 T-REx clonal line stably expressing GCaMP6f (HEK T-REx/GCaMP6f/APOL1 G2 K6.3), doxycycline induced
T1 sequence (O14791 with tags, fused parts or gaps DEL388-389): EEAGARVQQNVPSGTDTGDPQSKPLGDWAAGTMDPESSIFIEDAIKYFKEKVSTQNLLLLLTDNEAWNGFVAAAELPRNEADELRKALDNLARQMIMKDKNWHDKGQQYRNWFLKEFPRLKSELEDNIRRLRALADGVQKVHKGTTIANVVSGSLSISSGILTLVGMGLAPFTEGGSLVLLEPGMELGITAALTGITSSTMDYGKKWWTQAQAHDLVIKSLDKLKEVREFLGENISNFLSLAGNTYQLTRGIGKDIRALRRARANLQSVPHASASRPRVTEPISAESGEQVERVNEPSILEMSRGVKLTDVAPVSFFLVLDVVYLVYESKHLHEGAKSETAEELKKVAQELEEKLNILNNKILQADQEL
The experiment in a line: APOL1-mediated calcium transport (calcium influx) assay, HEK T-REx/GCaMP6f/APOL1 G2 K6.3 cells, FLIPR TETRA. Type of experiment: cell-based. Particulars: prevention of calcium influx; geometric mean of at least 2 assay runs; † = average of a technical replicate from a single assay run. A digest of the protocol:
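A HEK293 T-REx clone stably expressing GCaMP6f had APOL1 G2 induced with doxycycline (20 ng/mL solution added) for 6 h. Cells were then washed into Ca2+-free Tyrode's buffer (pH 7.4) and preincubated with compounds (duplicate 8-point) for 10 min at room temperature. Ca2+ injection to 5 mM final produced FLIPR GCaMP fluorescence, giving AC50 for influx inhibition (geometric mean, ≥2 runs).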

In experiment [2] the test system is HEK293 cells overexpressing APOL1 G2. The experiment in a line: APOL1 G2 HEK293 cell rescue assay (reversal of cell death caused by overexpression of APOL1). Type of experiment: cell-based. The settings on record: Homo sapiens, HEK293, HEK293 overexpressing APOL1 G2; geometric mean of at least 2 assay runs; † = single assay run. A digest of the protocol:
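EC50 is the half-maximal effective concentration for reversing cell death driven by APOL1 G2 overexpression in HEK293 cells. Reported as geometric mean of at least 2 runs on separate days, each run averaging duplicate wells per plate; some values from a single run.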

Broadly, the AC50 is the midpoint of the concentration-response curve, whichever way the signal moves. For orientation: EC50 means the concentration at which the effect is half-maximal. For the compound `CS(=O)(=O)N1CCCc2cc(OCCN3CCC4(CC3)C(=O)Nc3ccc(Cl)cc34)ccc21` [Compound 53, 5-chloro-1′-{2-[(1-methanesulfonyl-1,2,3,4-tetrahydroquinolin-6-yl)oxy]ethyl}-1,2-dihydrospiro[indole-3,4′-piperidin]-2-one], the AC50 in experiment [1] stood at 838 nM. Also, the EC50 in experiment [2] was 52.9 nM.

Consider `CC(=O)N1CCCc2cc(OCCN3CCC4(CC3)C(=O)Nc3ccc(Cl)cc34)ccc21` [Compound 56, 1′-{2-[(1-acetyl-1,2,3,4-tetrahydroquinolin-6-yl)oxy]ethyl}-5-chloro-1,2-dihydrospiro[indole-3,4′-piperidin]-2-one], for which, in experiment [1], the AC50 came out at 1010 nM. Besides, in experiment [2], the EC50 stood at 105 nM.

In the case of `CC(=O)N1Cc2ccc(OCCN3CCC4(CC3)C(=O)Nc3ccc(Cl)cc34)cc2C1` [Compound 57, 1′-{2-[(2-acetyl-2,3-dihydro-1H-isoindol-5-yl)oxy]ethyl}-5-chloro-1,2-dihydrospiro[indole-3,4′-piperidin]-2-one], the concentration at half-maximal activity (AC50) in experiment [1] was 706 nM. Also, in experiment [2], the EC50 came to 190 nM.

With `CNC(=O)N1CCCc2cc(OCCN3CCC4(CC3)C(=O)Nc3ccc(Cl)cc34)ccc21` [Compound 60, 6-(2-{5-chloro-2-oxo-1,2-dihydrospiro[indole-3,4′-piperidin]-1′-yl}ethoxy)-N-methyl-1,2,3,4-tetrahydroquinoline-1-carboxamide], the AC50 in experiment [1] is 652 nM. The EC50 in experiment [2] came out at 62.7 nM.

For `O=C1Nc2ccc(Cl)cc2C12CCN(CCOc1ccc3nccnc3c1)CC2` [Compound 62, 5-chloro-1′-[2-(quinoxalin-6-yloxy)ethyl]-1,2-dihydrospiro[indole-3,4′-piperidin]-2-one], in experiment [1], the AC50 was 958 nM. Besides, the EC50 in experiment [2] was found to be 165 nM.

Turning to `CS(=O)(=O)c1ccc(OCCN2CCC3(CC2)C(=O)Nc2ccc(Cl)cc23)cc1F` [Compound 63, 5-chloro-1′-[2-(3-fluoro-4-methanesulfonylphenoxy)ethyl]-1,2-dihydrospiro[indole-3,4′-piperidin]-2-one], the AC50 in experiment [1] stood at 461 nM. The EC50 in experiment [2] was 51.1 nM.

As to `CS(=O)(=O)c1ccc(OCCN2CCC3(CC2)C(=O)Nc2ccc(Cl)cc23)cn1` [Compound 64, 5-chloro-1′-{2-[(6-methanesulfonylpyridin-3-yl)oxy]ethyl}-1,2-dihydrospiro[indole-3,4′-piperidin]-2-one], the AC50 in experiment [1] came to 455 nM. The EC50 in experiment [2] is 163 nM.

As to `CN1C(=O)Cc2cc(OCCN3CCC4(CC3)C(=O)Nc3ccc(Cl)cc34)ccc21` [Compound 65, 5-chloro-1′-{2-[(1-methyl-2-oxo-2,3-dihydro-1H-indol-5-yl)oxy]ethyl}-1,2-dihydrospiro[indole-3,4′-piperidin]-2-one], the AC50 in experiment [1] was 639 nM. Further, in experiment [2], the EC50 stood at 87.5 nM.

For the compound `Cc1ccc2c(c1)C1(CCN(CCOc3ccc(S(C)(=O)=O)cc3)CC1)C(=O)N2` [Compound 66, 1′-[2-(4-methanesulfonylphenoxy)ethyl]-5-methyl-1,2-dihydrospiro[indole-3,4′-piperidin]-2-one], the AC50 in experiment [1] is 461 nM. In experiment [2], the concentration for a half-maximal effect (EC50) is 108 nM.

Turning to `Cn1ncc2cc(OCCN3CCC4(CC3)C(=O)Nc3ccc(Cl)cc34)ccc21` [Compound 68, 5-chloro-1′-{2-[(1-methyl-1H-indazol-5-yl)oxy]ethyl}-1,2-dihydrospiro[indole-3,4′-piperidin]-2-one], in experiment [1], the AC50 is below 249 nM. Moreover, the EC50 in experiment [2] was 148 nM.

As to `CS(=O)(=O)c1ccc(OCCN2CCC3(CC2)C(=O)Nc2ccc(Cl)cc23)cc1` [Compound 69, 5-chloro-1′-[2-(4-methanesulfonylphenoxy)ethyl]-1,2-dihydrospiro[indole-3,4′-piperidin]-2-one], the concentration at half-maximal activity (AC50) in experiment [1] amounted to 216 nM. The EC50 in experiment [2] was 82.6 nM.

Consider `Cn1ncc2cc(OCCN3CCC4(CC3)C(=O)Nc3ccccc34)ccc21` [Compound 70, 1′-{2-[(1-methyl-1H-indazol-5-yl)oxy]ethyl}-1,2-dihydrospiro[indole-3,4′-piperidin]-2-one], for which, in experiment [1], the half-maximal activity concentration (AC50) turned out to be 124 nM. In addition, the EC50 in experiment [2] was 1050 nM.
